The values that follow come from patent publication US11542492B2 (Celgene CAR LLC, priority 2009, dated 2023).

Each structure is given as a SMILES string.

Assay [1] has as its target T1, HCV NS3/4A 1b protease enzyme (wild type) (Hepatitis C virus genotype 1b, UniProt P26663).
T1 construct: 10× stocks of NS3/4A protease enzyme from Bioenza (Mountain View, Calif.); purchased Bioenza
The experiment in a line: HCV protease FRET assay (IC50_APP), wild type NS3/4A 1b. Type of assay: biochemical. As to the method:
HCV Protease FRET Assay for WT and Mutated NS3/4A 1b Enzymes (IC50_APP).
The following protocol was used to generate “apparent” IC50 (IC50_APP) values as depicted in Table 6, below. Without wishing to be bound by any particular theory, it is believed that IC50_APP, contrasted with IC50 values, may provide a more useful indication of time-dependent inhibition, and are thus more representative of binding affinity. […] 5 μL of each enzyme were added to Corning (#3575) 384-well, black, microtiter plates (Corning, N.Y.) after spotting a 0.5 μL volume of 50% DMSO and serially diluted compounds prepared in 50% DMSO. Protease reactions were immediately started after enzyme addition with the addition of 45 μL of the FRET substrate and monitored for 60-90 minutes at λex485/λem520 in a Synergy plate reader from BioTek (Winooski, Vt.). At the conclusion of each assay, progress curves from each well were examined for linear reaction kinetics and fit statistics (R^2, 95% confidence intervals, absolute sum of squares). Initial velocity (0 minutes to 15+ minutes) from each reaction was determined from the slope of a plot of relative fluorescence units vs time (minutes) and then plotted against inhibitor concentration as a percent of the no inhibitor and no enzyme controls to estimate apparent IC50 from log [Inhibitor] vs Response. (Variable Slope model in GraphPad Prism from GraphPad Software (San Diego, Calif.).)

Assay [2] concerns the target T2, HCV NS3 protease WT 1b (Hepatitis C virus genotype 1b, UniProt P26663).
T2 construct: The single-chain proteolytic domain (NS4A21-32-GSGS-NS33-631) was cloned into pET-14b; His tag (own knowledge of vector pET-14b); made in house; host or cells: Escherichia coli BL21
Briefly: MALDI MS of intact HCV protease 1b WT incubated with compound. Type of assay: binding. The settings on record: WT 1b, 1 HR. As for the experimental part:
Intact HCV (protease) 1bWT was incubated for 1 hr at a 10× fold excess of XVI-26 to protein. 3 ul aliquots of the samples were diluted with 10 ul of 0.1% TFA prior to micro C4 ZipTipping directly onto the MALDI target using Sinapinic acid as the desorption matrix (10 mg/mL in 0.1% TFA:Acetonitrile 50:50). […] Due to likely protein misfolding during protein purification, a small portion of the misfolded protein was not modified.
In order to determine whether the modification of the protein occurred at lysine, the pH from the above experiment was increased from 7.4 to 10.0. Because the compound lysine adduct would be an amide any increase in pH would have minimal effect on the modified protein. If however, the modification occurred at cysteine the resultant thioester bond would be unstable and the compound would hydrolyze off the protein.
Intact HCV (protease) 1bWT, C159S, and C159S/K136A were incubated for 1 hr at a 10× fold excess of XVI-26 to protein. 3 μl aliquots of the samples were diluted with 10 μl of 0.1% TFA prior to micro C4 ZipTipping directly onto the MALDI target using Sinapinic acid as the desorption matrix (10 mg/mL in 0.1% TFA:Acetonitrile 50:50).
Intact HCV (protease) WT1b was incubated for 1 hr at a 10× fold excess of XVI-1 (mw=782.87) to protein. 3 μl aliquots of the samples were diluted with 10 μl of 0.1% TFA prior to micro C4 ZipTipping directly onto the MALDI target using Sinapinic acid as the desorption matrix (10 mg/mL in 0.1% TFA:Acetonitrile 50:50). […] Due to some protein misfolding during the purification of the protein, the unfolded portion of the protein can not react with XVI-1.

Assay [3] concerns the target T3, p110β/p85α (PI3Kβ) (Homo sapiens, UniProt P42338).
T3 construct: purchased Millipore 14-603
Briefly: HTRF assay, p110β/p85α. Type of assay: biochemical. The settings on record: read-out: PI3Kβ HTRF IC50 Inhibition Designation. As for the experimental part:
The mechanics of the assay platform are best described by the vendor (Millipore, Billerica, Mass.) on their website at the following URL: http://www.millipore.com/coa/tech1/74jt4z.
Briefly, Stop solution (Stop A, #33-007 and Stop B, #33-009; 3:1 ratio) and Detection Mix (DMC, #33-015 with DMA, #33-011 and DMB, #33-013; 18:1:1 ratio) were prepared as recommended by the manufacturer ˜2 hrs prior to use. […] Lipid kinase reactions were started with the addition of 5 μL of ATP solution, mixed for 15 sec on a rotary plate shaker and incubated for 15-30 minutes at 25° C. Next, reactions were stopped with a 5 μL addition of Stop solution followed by a 5 μL volume of Detection Mix. […] At the conclusion of each assay, the HTRF ratio from fluorescence emission values for each well was calculated and % Inhibition determined from averaged controls wells. % Inhibition values for each compound re then plotted against inhibitor concentration to estimate IC50 from log [Inhibitor] vs Response, Variable Slope model in GraphPad Prism from GraphPad Software (San Diego, Calif.).
Background: TR-FRET usually uses a lanthanide donor and a delayed reading to cut background.

Assay [4] addresses T4, p120γ (PI3Kγ) (Homo sapiens, UniProt P48736).
T4 construct: purchased BPS Bioscience 40625
The experiment in a line: HTRF assay, p120γ. The settings on record: PI3Kγ; read-out: PI3Kγ HTRF IC50 Inhibition Designation. It is filed as biochemical. Put shortly:
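End-point competition-binding HTRF with 1-4 nM enzyme and 10 μM di-C8-PIP2, pre-incubated with compound 30 min at 25° C, then 50 μM ATP for 15-30 min at 25° C. HTRF ratio (665/620 nm) gave % inhibition; IC50 from variable-slope log-dose fit.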

As to `C=C[C@@H]1C[C@]1(NC(=O)[C@@H]1CC(OC(=O)N2Cc3cccc(F)c3C2)CN1C(=O)[C@H](CC(=O)N1C[C@@H]2C[C@H]1C(=O)O2)NC(=O)OC(C)(C)C)C(=O)NS(=O)(=O)C1CC1` (stereo partly drawn) [XVI-15, (5S)-1-((S)-2-(tert-butoxycarbonylamino)-4-oxo-4-((1S,4S)-3-oxo-2-oxa-5-azabicyclo[2.2.1]heptan-5-yl)butanoyl)-5-((1R,2S)-1-(cyclopropylsulfonylcarbamoyl)-2-vinylcyclopropylcarbamoyl)pyrrolidin-3-yl 4-fluoroisoindoline-2-carboxylate], the IC50 (as a rule, the concentration that gives 50% inhibition) in assay [1] was less than 0.001 µM. Moreover, in assay [2], the “MS_HCVNS3_INTACT_NS3 WT 1b 1 HR” value was “H (>50% and ≤70% modification)”.
On to `C=C[C@@H]1C[C@]1(NC(=O)[C@@H]1CC(Oc2nccc3cc(OC)ccc23)CN1C(=O)[C@H](CCC(=O)N1C[C@@H]2C[C@H]1C(=O)O2)NC(=O)OC(C)(C)C)C(=O)NS(=O)(=O)C1CC1` (stereo partly drawn) [XVI-9, tert-butyl(2S)-1-((2S)-2-((1R,2S)-1-(cyclopropylsulfonylcarbamoyl)-2-vinylcyclopropylcarbamoyl)-4-(6-methoxyisoquinolin-1-yloxy)pyrrolidin-1-yl)-1,5-dioxo-5-((1S,4S)-3-oxo-2-oxa-5-azabicyclo[2.2.1]heptan-5-yl)pentan-2-ylcarbamate], for which the IC50 in assay [1] was less than 0.001 µM. In addition, in assay [2], the “MS_HCVNS3_INTACT_NS3 WT 1b 1 HR” value is “H (>50% and ≤70% modification)”.
Consider `C=C[C@@H]1C[C@]1(NC(=O)[C@@H]1CC(Oc2nccc3cc(OC)ccc23)CN1C(=O)[C@H](CC(=O)N1C[C@H]2C[C@@H]1C(=O)O2)NC(=O)OC(C)(C)C)C(=O)NS(=O)(=O)C1CC1` (stereo partly shown) [XVI-6], for which the IC50 in assay [1] fell in the range of 0.001 to 0.01 µM. In addition, in assay [2], the “MS_HCVNS3_INTACT_NS3 WT 1b 1 HR” value was “H (>50% and ≤70% modification)”.
As for `C=C[C@@H]1C[C@]1(NC(=O)[C@@H]1CC(OC(=O)N2Cc3cccc(F)c3C2)CN1C(=O)[C@H](CC(=O)N1C[C@H]2C[C@@H]1C(=O)O2)NC(=O)OC(C)(C)C)C(=O)NS(=O)(=O)C1CC1` (stereo partly drawn) [XVI-14, (5S)-1-((S)-2-(tert-butoxycarbonylamino)-4-oxo-4-((1R,4R)-3-oxo-2-oxa-5-azabicyclo[2.2.1]heptan-5-yl)butanoyl)-5-((1R,2S)-1-(cyclopropylsulfonylcarbamoyl)-2-vinylcyclopropylcarbamoyl)pyrrolidin-3-yl 4-fluoroisoindoline-2-carboxylate], the 50% inhibitory concentration (IC50) in assay [1] was less than 0.001 µM. Also, the “MS_HCVNS3_INTACT_NS3 WT 1b 1 HR” value in assay [2] is “H (>50% and ≤70% modification)”.
`C=C[C@@H]1C[C@]1(NC(=O)[C@@H]1CC(Oc2nccc3cc(OC)ccc23)CN1C(=O)[C@H](CCC(=O)N1CC[C@H]2C[C@@H]1C(=O)O2)NC(=O)OC(C)(C)C)C(=O)NS(=O)(=O)C1CC1` (stereo partly shown) [XVI-2]: the IC50 in assay [1] is less than 0.001 µM. In assay [2], the “MS_HCVNS3_INTACT_NS3 WT 1b 1 HR” value is listed as “K (≤30% modification)”.
For `C=C[C@@H]1C[C@]1(NC(=O)[C@@H]1CC(Oc2nccc3cc(OC)ccc23)CN1C(=O)[C@H](CC(=O)N1C[C@@H]2C[C@H]1C(=O)O2)NC(=O)OC(C)(C)C)C(=O)NS(=O)(=O)C1CC1` (stereo partly shown) [XVI-7], in assay [1], the IC50 lay within 0.001 to 0.01 µM. Also, the “MS_HCVNS3_INTACT_NS3 WT 1b 1 HR” value in assay [2] was “H (>50% and ≤70% modification)”.
As for `C=C[C@@H]1C[C@]1(NC(=O)[C@@H]1CC(Oc2nccc3cc(OC)ccc23)CN1C(=O)[C@H](CCC(=O)N1C[C@H]2C[C@@H]1C(=O)O2)NC(=O)OC(C)(C)C)C(=O)NS(=O)(=O)C1CC1` (stereo partly shown) [XVI-8], in assay [1], the IC50 is less than 0.001 µM. The “MS_HCVNS3_INTACT_NS3 WT 1b 1 HR” value in assay [2] was “G (>70% modification)”.
`C=C[C@@H]1C[C@]1(NC(=O)[C@@H]1CC(OC(=O)N2Cc3cccc(F)c3C2)CN1C(=O)[C@H](CCC(=O)N1C[C@H]2C[C@@H]1C(=O)O2)NC(=O)OC(C)(C)C)C(=O)NS(=O)(=O)C1CC1` (stereo partly drawn) [XVI-16, (5S)-1-((S)-2-(tert-butoxycarbonylamino)-5-oxo-5-((1R,4R)-3-oxo-2-oxa-5-azabicyclo[2.2.1]heptan-5-yl)pentanoyl)-5-((1R,2S)-1-(cyclopropylsulfonylcarbamoyl)-2-vinylcyclopropylcarbamoyl)pyrrolidin-3-yl 4-fluoroisoindoline-2-carboxylate]: in assay [1], the IC50 was less than 0.001 µM. Further, in assay [2], the “MS_HCVNS3_INTACT_NS3 WT 1b 1 HR” value was “H (>50% and ≤70% modification)”.
`C=C[C@@H]1C[C@]1(NC(=O)[C@@H]1CC(OC(=O)N2Cc3cccc(F)c3C2)CN1C(=O)[C@H](CCC(=O)N1C[C@@H]2C[C@H]1C(=O)O2)NC(=O)OC(C)(C)C)C(=O)NS(=O)(=O)C1CC1` (stereo partly drawn) [XVI-17, (5S)-1-((S)-2-(tert-butoxycarbonylamino)-5-oxo-5-((1S,4S)-3-oxo-2-oxa-5-azabicyclo[2.2.1]heptan-5-yl)pentanoyl)-5-((1R,2S)-1-(cyclopropylsulfonylcarbamoyl)-2-vinylcyclopropylcarbamoyl)pyrrolidin-3-yl 4-fluoroisoindoline-2-carboxylate]: the IC50 in assay [1] is less than 0.001 µM. In addition, the “MS_HCVNS3_INTACT_NS3 WT 1b 1 HR” value in assay [2] is listed as “G (>70% modification)”.
Regarding `C=C[C@@H]1C[C@]1(NC(=O)[C@@H]1CC(OC(=O)N2Cc3cccc(F)c3C2)CN1C(=O)[C@H](COC(=O)N[C@@H]1C(=O)O[C@@H]1C)NC(=O)OC(C)(C)C)C(=O)NS(=O)(=O)C1CC1` (stereo partly drawn) [XVI-25, (5S)-1-((S)-2-(tert-butoxycarbonylamino)-3-((2R,3S)-2-methyl-4-oxooxetan-3-ylcarbamoyloxy)propanoyl)-5-((1R,2S)-1-(cyclopropylsulfonylcarbamoyl)-2-vinylcyclopropylcarbamoyl)pyrrolidin-3-yl 4-fluoroisoindoline-2-carboxylate], in assay [1], the IC50 was less than 0.001 µM. Also, the “MS_HCVNS3_INTACT_NS3 WT 1b 1 HR” value in assay [2] is “K (≤30% modification)”.
With `Nc1ncc(-c2nc(N3CCOCC3)c3sc(CN4CCN(C(=O)C5CSC(=O)C5)CC4)cc3n2)cn1` (stereo not shown) [XXII-31, 4-(4-((2-(2-aminopyrimidin-5-yl)-4-morpholinothieno[3,2-d]pyrimidin-6-yl)methyl)piperazine-1-carbonyl)dihydrothiophen-2(3H)-one], the IC50 in assay [3] and in assay [4] was 0.1 to 1 µM each time.
Turning to `O=C1CC[C@H](C(=O)N2CCN(Cc3cc4nc(-c5cccc6[nH]ncc56)nc(N5CCOCC5)c4s3)CC2)O1` [XXII-22], the IC50 in assay [3] and in assay [4] was 0.1 to 1 µM throughout.
On to `O=C1CC[C@@H](C(=O)N2CCN(Cc3cc4nc(-c5cccc6[nH]ncc56)nc(N5CCOCC5)c4s3)CC2)O1` [XXII-23], for which the IC50 was 1 to 10 µM in assay [3] and 0.1 to 1 µM in assay [4].
The like results for `COC(=O)N1C(=O)CC[C@@H]1C(=O)N1CCN(Cc2cc3nc(-c4cnc(N)nc4)nc(N4CCOCC4)c3s2)CC1` [XXII-28] were, in that order, 0.1 to 1 µM and 0.1 to 1 µM.
